Test results taken from PubChem BioAssay (NCI).
Several values for one entry are separate records, joined by “and”; a condition that tells them apart may be missing. Equal entries are not always repeated.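 Grown in 96-well plates, cells were treated for 48 hours with each compound at five concentrations. Insufficient inhibition: endpoint recorded as highest concentration tested. GI50 = concentration required for 50% inhibition of growth. TGI is the concentration that stops growth completely.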

Experiments:
Experiment in all cases: inhibition of tumour cell growth, NCI panel, 48 h
SF-539 CNS = tested on: SF-539 CNS
HOP-92 NSCLC = tested on: HOP-92 NSCLC
UACC-62 melanoma = tested on: UACC-62 melanoma
EKVX NSCLC = tested on: EKVX NSCLC
SR leukemia = tested on: SR leukemia
HT29 colon = tested on: HT29 colon
NCI/ADR-RES ovarian = tested on: NCI/ADR-RES ovarian
HS 578T breast = tested on: HS 578T breast
HCT-116 colon = tested on: HCT-116 colon
MDA-MB-231 breast = tested on: MDA-MB-231 breast

CC(C)(C)NNC(=O)/C(=C/c1ccc([N+](=O)[O-])cc1)NC(=O)c1ccccc1
TGI (SF-539 CNS): > 100 µM
TGI (HOP-92 NSCLC): > 100 µM
TGI (UACC-62 melanoma): > 100 µM
TGI (EKVX NSCLC): > 100 µM
TGI (SR leukemia): 46.4 µM
TGI (HT29 colon): > 100 µM

COc1cc(C2c3[nH]c4ccccc4c3C[C@H]3COC(=O)N23)cc(OC)c1OC (some centres not stated)
GI50 (SF-539 CNS): < 0.01 µM
GI50 (HOP-92 NSCLC): 0.0184 µM
TGI (HOP-92 NSCLC): > 100 µM
GI50 (UACC-62 melanoma): < 0.01 µM
TGI (UACC-62 melanoma): > 100 µM
GI50 (NCI/ADR-RES ovarian): 0.0586 µM and < 0.01 µM
TGI (NCI/ADR-RES ovarian): 0.265 µM and 0.0902 µM
TGI (EKVX NSCLC): > 100 µM
TGI (HS 578T breast): 0.0814 µM
GI50 (HT29 colon): < 0.01 µM
TGI (HT29 colon): > 100 µM

CC(NS(=O)(=O)c1ccc([N+](=O)[O-])cc1)C(=O)O (configuration not stated)
TGI (SF-539 CNS): > 100 µM
TGI (HOP-92 NSCLC): > 100 µM
TGI (UACC-62 melanoma): > 100 µM
TGI (EKVX NSCLC): > 100 µM
TGI (HT29 colon): > 100 µM

O=C1[C@@H]2C(c3ccccc3Br)=NO[C@@H]2C(=O)N1c1ccc(Cc2ccc(N3C(=O)[C@H]4C(c5ccccc5Br)=NO[C@H]4C3=O)cc2)cc1
TGI (SF-539 CNS): > 100 µM
TGI (HOP-92 NSCLC): > 100 µM
TGI (UACC-62 melanoma): > 100 µM
TGI (EKVX NSCLC): > 100 µM
TGI (HT29 colon): > 100 µM

NCCNc1c2c(c(NCCN)c3c(CO)c[nH]c13)C(=O)c1ccccc1C2=O
GI50 (SF-539 CNS): 3.89 µM
TGI (SF-539 CNS): 39.3 µM
GI50 (HCT-116 colon): 7.11 µM
TGI (HCT-116 colon): > 100 µM
GI50 (HOP-92 NSCLC): 24 µM
TGI (HOP-92 NSCLC): > 100 µM
GI50 (UACC-62 melanoma): 15.2 µM
TGI (UACC-62 melanoma): > 100 µM
GI50 (NCI/ADR-RES ovarian): > 100 µM
TGI (NCI/ADR-RES ovarian): > 100 µM
GI50 (EKVX NSCLC): 19.7 µM
TGI (EKVX NSCLC): 56.2 µM
GI50 (HS 578T breast): 3.27 µM
TGI (HS 578T breast): 38.9 µM
GI50 (HT29 colon): 10.6 µM
TGI (HT29 colon): > 100 µM
GI50 (MDA-MB-231 breast): 15.5 µM
TGI (MDA-MB-231 breast): 51.4 µM

CC1CC[C@]2(C(=O)O)CCC3(COC(=O)/C=C\c4ccc(O)cc4)C(=CCC4[C@@]5(C)CC[C@H](O)C(C)(C)C5CC[C@]43C)[C@@H]2[C@H]1C (some centres not stated)
TGI (SF-539 CNS): 31.3 µM
TGI (HCT-116 colon): 37 µM
TGI (UACC-62 melanoma): 32.6 µM
TGI (EKVX NSCLC): 32.8 µM
TGI (SR leukemia): 76.1 µM
TGI (HT29 colon): 35.5 µM

CCOC(=O)c1c2c(c(O)c3ccccc3c(O)n(Cc3ccc(OC)cc3)c1C)C(=O)C=CC2=O
GI50 (SF-539 CNS): 84.6 µM
TGI (SF-539 CNS): > 100 µM
GI50 (HCT-116 colon): > 100 µM
TGI (HCT-116 colon): > 100 µM
GI50 (HOP-92 NSCLC): > 100 µM
TGI (HOP-92 NSCLC): > 100 µM
GI50 (UACC-62 melanoma): > 100 µM
TGI (UACC-62 melanoma): > 100 µM
GI50 (NCI/ADR-RES ovarian): > 100 µM
TGI (NCI/ADR-RES ovarian): > 100 µM
GI50 (EKVX NSCLC): > 100 µM
TGI (EKVX NSCLC): > 100 µM
GI50 (HS 578T breast): > 100 µM
TGI (HS 578T breast): > 100 µM
GI50 (HT29 colon): > 100 µM
TGI (HT29 colon): > 100 µM
GI50 (MDA-MB-231 breast): > 100 µM
TGI (MDA-MB-231 breast): > 100 µM

CC1CC(C2=CC=CCS2)=Nc2ccccc2S1 (configuration not stated)
TGI (SF-539 CNS): > 100 µM
TGI (HCT-116 colon): > 100 µM
TGI (HOP-92 NSCLC): > 100 µM
TGI (UACC-62 melanoma): > 100 µM
TGI (EKVX NSCLC): > 100 µM

Cc1ccc(NC(=O)c2cc3cc(N=Nc4ccc(Br)cc4)ccc3oc2=O)cc1
TGI (HCT-116 colon): > 100 µM
TGI (HOP-92 NSCLC): > 100 µM
TGI (SR leukemia): > 100 µM
TGI (HT29 colon): > 100 µM

COc1ccc(OC)c(/C=N/NC(=O)Cc2csc3nc(-c4ccc(Br)cc4)cn23)c1
GI50 (SF-539 CNS): 11.2 µM
TGI (SF-539 CNS): 24.4 µM
GI50 (HCT-116 colon): 4.57 µM
TGI (HCT-116 colon): 15.9 µM
GI50 (HOP-92 NSCLC): 13.9 µM
TGI (HOP-92 NSCLC): 35.5 µM
GI50 (UACC-62 melanoma): 12.1 µM
TGI (UACC-62 melanoma): 27.7 µM
GI50 (NCI/ADR-RES ovarian): 12.8 µM
TGI (NCI/ADR-RES ovarian): 35.4 µM
GI50 (EKVX NSCLC): 17.1 µM
TGI (EKVX NSCLC): 57.6 µM
GI50 (HS 578T breast): 11.6 µM
TGI (HS 578T breast): 45.4 µM
GI50 (HT29 colon): 16.4 µM
TGI (HT29 colon): > 100 µM
GI50 (MDA-MB-231 breast): 16.4 µM
TGI (MDA-MB-231 breast): 41.2 µM

N=C(N)c1ccc(OCc2cccc(COc3ccc(C(=N)N)cc3)c2)cc1
GI50 (SF-539 CNS): 1.92 µM
TGI (SF-539 CNS): 5.1 µM
GI50 (HCT-116 colon): 5.22 µM
TGI (HCT-116 colon): 16.9 µM
GI50 (HOP-92 NSCLC): 3.01 µM
TGI (HOP-92 NSCLC): 9.32 µM
GI50 (UACC-62 melanoma): 2.17 µM
TGI (UACC-62 melanoma): 7.99 µM
GI50 (NCI/ADR-RES ovarian): > 100 µM
TGI (NCI/ADR-RES ovarian): > 100 µM
GI50 (EKVX NSCLC): 2.85 µM
TGI (EKVX NSCLC): 8.25 µM
GI50 (HS 578T breast): 4 µM
TGI (HS 578T breast): 12.5 µM
GI50 (HT29 colon): 7.64 µM
TGI (HT29 colon): > 100 µM
GI50 (MDA-MB-231 breast): 4.09 µM
TGI (MDA-MB-231 breast): 15.9 µM

CN1N=CSC12C(=O)N(c1ccc(Cl)cc1)C(=O)N2c1ccc(Cl)cc1 (configuration not stated)
TGI (SF-539 CNS): > 100 µM
TGI (HCT-116 colon): 13.3 µM
TGI (HOP-92 NSCLC): 8.92 µM
TGI (UACC-62 melanoma): 29.1 µM
TGI (EKVX NSCLC): > 100 µM
TGI (SR leukemia): > 100 µM
TGI (HT29 colon): 32 µM

COc1cccc2c1C(=O)C=CC2=O
TGI (SF-539 CNS): 30.1 µM
TGI (HCT-116 colon): 12.1 µM
TGI (HOP-92 NSCLC): 3.75 µM
TGI (UACC-62 melanoma): 25.3 µM
TGI (EKVX NSCLC): 32.8 µM
TGI (SR leukemia): 1.02 µM
TGI (HS 578T breast): > 100 µM
TGI (HT29 colon): 26.9 µM
TGI (MDA-MB-231 breast): 4.76 µM

F
GI50 (SF-539 CNS): 1770 µM
TGI (SF-539 CNS): 4620 µM
GI50 (HCT-116 colon): 2820 µM
TGI (HCT-116 colon): > 6870 µM
GI50 (HOP-92 NSCLC): 1850 µM
TGI (HOP-92 NSCLC): > 6870 µM
GI50 (UACC-62 melanoma): 1550 µM
TGI (UACC-62 melanoma): 3100 µM
GI50 (NCI/ADR-RES ovarian): 2530 µM
TGI (NCI/ADR-RES ovarian): > 6870 µM
GI50 (EKVX NSCLC): 2100 µM
TGI (EKVX NSCLC): 5220 µM
GI50 (SR leukemia): > 6870 µM
TGI (SR leukemia): > 6870 µM
GI50 (HT29 colon): 2110 µM
TGI (HT29 colon): 6180 µM
GI50 (MDA-MB-231 breast): 2660 µM
TGI (MDA-MB-231 breast): > 6870 µM

COC(=O)C1=C(c2ccc(OC)c(OC)c2)OC(c2ccc(OC)c(OC)c2)C1 (configuration not stated)
TGI (SF-539 CNS): > 100 µM
TGI (HCT-116 colon): > 100 µM
TGI (HOP-92 NSCLC): > 100 µM
TGI (UACC-62 melanoma): > 100 µM
TGI (EKVX NSCLC): > 100 µM
TGI (SR leukemia): > 100 µM
TGI (HT29 colon): > 100 µM

C/C(CN1C(=O)c2ccccc2C1=O)=N\NS(=O)(=O)c1ccc(C)cc1
TGI (SF-539 CNS): > 100 µM
TGI (HCT-116 colon): > 100 µM
TGI (UACC-62 melanoma): > 100 µM
TGI (EKVX NSCLC): > 100 µM
TGI (SR leukemia): > 100 µM
TGI (HT29 colon): > 100 µM

C[C@@H]1COCCN1c1cc(C2([S@](C)(=N)=O)CC2)nc(-c2ccnc3[nH]ccc23)n1
GI50 (SF-539 CNS): 1.19 µM and 1.99 µM
TGI (SF-539 CNS): 8.03 µM and > 10 µM
GI50 (HCT-116 colon): 4.67 µM and 4.53 µM
TGI (HCT-116 colon): > 87.5 µM
GI50 (HOP-92 NSCLC): 1.34 µM and 1.14 µM
TGI (HOP-92 NSCLC): 14 µM and 8.77 µM
GI50 (UACC-62 melanoma): 2.34 µM and 1.76 µM
TGI (UACC-62 melanoma): 16.6 µM and > 10 µM
GI50 (NCI/ADR-RES ovarian): 26.2 µM and > 10 µM
TGI (NCI/ADR-RES ovarian): > 100 µM
GI50 (EKVX NSCLC): 6.07 µM and > 10 µM
TGI (EKVX NSCLC): 61.7 µM and > 10 µM
GI50 (HS 578T breast): 2.93 µM and 3.72 µM
TGI (HS 578T breast): 29.6 µM and > 10 µM
GI50 (HT29 colon): 4.27 µM and 4.99 µM
TGI (HT29 colon): > 100 µM
GI50 (MDA-MB-231 breast): 7.28 µM and 7.53 µM
TGI (MDA-MB-231 breast): > 100 µM

CCN(CC)CCOCC[C@H]1CC[C@H]2[C@@H]3[C@H](C)Cc4cc(OS(N)(=O)=O)ccc4[C@H]3CC[C@]12C
GI50 (SF-539 CNS): 0.654 µM
TGI (SF-539 CNS): 1.87 µM
GI50 (HCT-116 colon): 0.696 µM
TGI (HCT-116 colon): 2.08 µM
GI50 (HOP-92 NSCLC): 1.39 µM
TGI (HOP-92 NSCLC): 3.5 µM
GI50 (NCI/ADR-RES ovarian): 1.57 µM
TGI (NCI/ADR-RES ovarian): 3.87 µM
GI50 (EKVX NSCLC): 0.765 µM
TGI (EKVX NSCLC): 3.65 µM
GI50 (SR leukemia): 0.329 µM
TGI (SR leukemia): 1.42 µM
GI50 (HT29 colon): 0.244 µM
TGI (HT29 colon): 1.03 µM
GI50 (MDA-MB-231 breast): 1.5 µM
TGI (MDA-MB-231 breast): 3.03 µM

NC1=NC(=O)/C(=C/c2ccccc2[N+](=O)[O-])C(N)=N1
TGI (SF-539 CNS): > 100 µM
TGI (HCT-116 colon): > 100 µM
TGI (HOP-92 NSCLC): > 100 µM
TGI (UACC-62 melanoma): > 100 µM
TGI (EKVX NSCLC): > 100 µM
TGI (SR leukemia): > 100 µM
TGI (HT29 colon): > 100 µM
